23 molecules from US10730826B2, “Ketone inhibitors of lysine gingipain” (CORTEXYME, INC., priority 2016, dated 2020) can be followed below.

Data set [1] deals with lysine gingipain (Kgp) (Porphyromonas gingivalis (Bacteroides gingivalis), UniProt P72194). The data set is described as follows: biochemical. The data set is classed as biochemical. How it is done: (§1) The specific assay conditions were as follows. Buffer: pH=7.5, 100 mM Tris-HCl, 75 mM NaCl, 2.5 mM CaCl2), 10 mM cysteine, 1% DMSO after all additions. Protein: 0.1 nM Kgp, isolated from culture of Porphyromonas gingivalis, as described by Pike et al. (J. Biol. Chem. 1994, 269(1), 406), and Potempa and Nguyen (Current Protocols in Protein Science. 2007, 21.20.1-21.20.27). Fluorogenic substrate: 10 μM Z-His-Glu-Lys-MCA. Time=90 minutes. Temperature=37° C.
(§2) Further assays to measure the inhibitory activity of compounds of the present invention against Kgp and cathepsins B, H, K, L, and S were conducted as described in Example 66. The capacities of the compounds to inhibit the activity of cathepsins F, V, and Z were also measured.

In a further data set the target is Cathepsin L (Homo sapiens (Human), UniProt P07711). The data set is described as follows: Cathepsin L inhibition assay. The format is biochemical. As to conditions: read-out: IC50 (nM) CatL. How it is done: (§3) The capacities of compounds of the present invention to inhibit the activity of cathepsins B, H, K, L, and S were measured in similar assays. Boc-Leu-Arg-Arg-AMC (20 μM) in sodium acetate buffer (50 mM, pH 5.5) containing DTT (1 mM) and EDTA (2 mM) was used for the Cathepsin B assay. L-Arg-AMC (20 μM) in sodium acetate buffer (50 mM, pH 5.5) containing DTT (1 mM) and EDTA (2 mM) was used for the Cathepsin H assay. Z-Phe-Arg-AMC (10 μM) in HEPES buffer (50 mM, pH 7.4) containing DTT (2.5 mM) and EDTA (1 mM) was used for the Cathepsin K assay. Z-Phe-Arg-AMC (20 μM) in sodium acetate buffer (50 mM, pH 5.5) containing DTT (1 mM) and EDTA (2 mM) was used for the Cathepsin L assay. Z-Leu-Arg-AMC (10 μM) in sodium acetate buffer (25 mM, pH 4.5) containing DTT (2.5 mM) and NaCl (50 mM) was used for the Cathepsin S assay. The capacities of the compounds to inhibit the activity of cathepsins F, V, and Z were also measured.
as §2

For the next data set, the target named is Cathepsin B (Homo sapiens (Human), UniProt P07858). The data set can be described thus: Cathepsin B inhibition assay. The data set is classed as biochemical. As to conditions: read-out: IC50 (nM) CatB. How it is done:
as §3, §2

The next data set concerns the target Cathepsin S (Homo sapiens (Human), UniProt P25774). The data set is described as follows: Cathepsin S inhibition assay. The format is biochemical. The settings on record: read-out: IC50 (nM) CatS. The method, then:
as §3, §2

The target of a further data set is Cathepsin K (Homo sapiens (Human), UniProt P43235). The data set can be described thus: Cathepsin K inhibition assay. The data set is classed as biochemical. As to conditions: read-out: IC50 (nM) CatK. The method, then: as §3, §2
The test system of data set [2] is lysine gingipain (Kgp). The data set is described as follows: biochemical. The data set is classed as biochemical, Porphyromonas gingivalis. As to conditions: as compared to reference compound 73. The method, then:
as §1, §2

Data set [3] in a line: Pharmacokinetics in male CD-1 mice dosed p.o. The format is in vivo. As to conditions: p.o. 10 mg/kg, compared to reference compound 73.

One may read the IC50 as the point on the concentration scale where inhibition reaches its midpoint.

Each structure is given as a SMILES string. Read-outs that look alike come from different tables or passages of the source.

Regarding `CN(C)c1ccc(/N=N/c2ccc(C(=O)NCc3cc(F)c(OCC(=O)C(CCCCN)NC(=O)c4cccc(N=[N+]=[N-])c4)c(F)c3)cc2)cc1` (stereo not drawn) [Compound 44a], the IC50 was 3.04 nM against lysine gingipain (Kgp) [1] (IC50 (nM) Kgp, Table 4) and 3 nM against lysine gingipain (Kgp) [1] (Kgp IC50 (nM), Table 5, probe compounds). As to `NCCCCC(NC(=O)c1ccncc1)C(=O)COc1c(F)ccc(F)c1F` (stereo not drawn) [Compound 52a], 0.06 nM corresponded to half-maximal inhibition against lysine gingipain (Kgp) [1] (IC50 (nM) Kgp, Table 4) (IC50). In turn, `C[N+](C)(C)c1ccc(C(=O)NC(CCCCN)C(=O)COc2ccon2)cn1` (stereo not drawn) [Compound 61a] had an IC50 on lysine gingipain (Kgp) [1] (IC50 (nM) Kgp, Table 4) of 0.43 nM. Regarding `NCCCCC(NC(=O)C1CCCC1)C(=O)COc1cc(F)ccc1F` (stereo not drawn) [Compound 6a], the concentration for half-maximal inhibition (IC50) at Cathepsin L (Table 3) was over 100000 nM; against lysine gingipain (Kgp) [1] (IC50 (nM) Kgp, Table 3) it was 0.19 nM; at Cathepsin B (Table 3), 20300 nM; on Cathepsin S (Table 3), 42800 nM; at Cathepsin K (Table 3), over 100000 nM. For the molecule `NCCCCC(NC(=O)C1CCCC1)C(=O)Cn1cncc(F)c1=O` (stereo not drawn) [Compound 41a], the IC50 against lysine gingipain (Kgp) [1] (IC50 (nM) Kgp, Table 4) was over 100 nM.

The molecule `NCCCCC(NC(=O)C1CCCC1)C(=O)Cn1ccc(=O)nc1` (stereo not drawn) [Compound 40a] returned an IC50 on lysine gingipain (Kgp) [1] (IC50 (nM) Kgp, Table 4) of 30.3 nM. Same read-out and setting: the same measure for `COC(C)(C)C(=O)NC(CCCCN)C(=O)COc1c(F)cccc1F` (stereo not drawn) [Compound 48a]: 0.07 nM. For `NCCCCC(NC(=O)C1CCCC1)C(=O)COc1cccc(F)c1` (stereo not drawn) [Compound 7a], the IC50 on Cathepsin L (Table 3) was 5530 nM; on Cathepsin L (Table 4), over 10000 nM; on lysine gingipain (Kgp) [1] (IC50 (nM) Kgp, Table 3), 1.3 nM; on lysine gingipain (Kgp) [1] (IC50 (nM) Kgp, Table 4) it was 1.3 nM; on Cathepsin B (Table 3) it was 49600 nM; at Cathepsin B (Table 4), over 10000 nM. For the same molecule, the IC50 on Cathepsin S (Table 3) is 24100 nM; at Cathepsin S (Table 4), over 10000 nM; on Cathepsin K (Table 3), 20200 nM; at Cathepsin K (Table 4) it was over 10000 nM. In turn, `COC(C)(C)C(=O)NC(CCCCN)C(=O)COc1cc(C)nc(C)c1` (stereo not drawn) [Compound 63a] came in with an IC50 on lysine gingipain (Kgp) [1] (IC50 (nM) Kgp, Table 4) of 0.09 nM. The same measure, in the same setting: the result for `NCCCCC(NC(=O)c1ccc(F)cc1)C(=O)COc1c(F)cccc1F` (stereo not drawn) [Compound 35a] reads 0.1 nM.

In the case of `NCCCC[C@H](NC(=O)c1ccccn1)C(=O)COc1c(F)ccc(F)c1F` [Compound 50, (S)—N-(7-amino-2-oxo-1-(2,3,6-trifluorophenoxy)heptan-3-yl)picolinamide], the “selectivity for Kgp over endogenous cathepsins” value in the data set on lysine gingipain (Kgp) [2] is recorded as “increased selectivity”. For the molecule `COC(C)(C)C(=O)N[C@@H](CCCCN)C(=O)COc1c(F)cccc1F` [Compound 48, (S)—N-(7-amino-1-(2,6-difluorophenoxy)-2-oxoheptan-3-yl)-2-methoxy-2-methylpropanamide], in data set [3], the oral availability entry is “improved oral availability” and the plasma concentrations entry is “increased plasma concentrations”.

The molecule `COC(C)(C)C(=O)NC(CCCCN)C(=O)COc1cnc(C)nc1` (stereo not drawn) [Compound 65a] yielded an IC50 on lysine gingipain (Kgp) [1] (IC50 (nM) Kgp, Table 4) of 0.16 nM. Regarding `CN(C)c1ccc(C(=O)NC(CCCCN)C(=O)COc2ccon2)cn1` (stereo not drawn) [Compound 62a], the IC50 on lysine gingipain (Kgp) [1] (IC50 (nM) Kgp, Table 4) came to 0.14 nM. Still for that read-out and setting: the result for `CS(C)(=O)=CC(=O)C(CCCCN)NC(=O)C1CCCC1` (stereo not drawn) [Compound 58a] reads 4.66 nM; that for `NCCCCC(NC(=O)c1ccnc(F)c1)C(=O)COc1c(F)cccc1F` (stereo not drawn) [Compound 31a], 0.15 nM. As for `NCCCCC(NC(=O)C1CCCC1)C(=O)COc1ccon1` (stereo not drawn) [Compound 49a], the IC50 against lysine gingipain (Kgp) [1] (IC50 (nM) Kgp, Table 4) came out at 0.23 nM. Turning to `NCCCCC(NC(=O)C1CCCC1)C(=O)COc1cccc(F)c1F` (stereo not drawn) [Compound 5a], the IC50 at Cathepsin L (Table 3) is over 100000 nM; against lysine gingipain (Kgp) [1] (IC50 (nM) Kgp, Table 3), 0.15 nM; on Cathepsin B (Table 3) it was 21500 nM; at Cathepsin S (Table 3), over 100000 nM; on Cathepsin K (Table 3), over 100000 nM. Turning to `COC(C)(C)C(=O)NC(CCCCN)C(=O)COc1cccnc1` (stereo not drawn) [Compound 64a], on lysine gingipain (Kgp) [1] (IC50 (nM) Kgp, Table 4), the IC50 turned out to be 0.4 nM. At lysine gingipain (Kgp) [1] (IC50 (nM) Kgp, Table 4), `NCCCCC(NC(=O)c1cccc(OCCCF)c1)C(=O)COc1c(F)cccc1F` (stereo not drawn) [Compound 30a] registered an IC50 of 0.21 nM. With `NCCCCC(NC(=O)c1cccc(F)c1)C(=O)COc1c(F)cccc1F` (stereo not drawn) [Compound 26a], the 50% inhibitory concentration (IC50) on lysine gingipain (Kgp) [1] (IC50 (nM) Kgp, Table 4) came to 0.09 nM. Consider `NCCCCC(NC(=O)C1CCCC1)C(=O)Cn1cnccc1=O` (stereo not drawn) [Compound 39a], for which, at lysine gingipain (Kgp) [1] (IC50 (nM) Kgp, Table 4), the IC50 is over 100 nM. With `NCCCCC(NC(=O)c1cccnc1F)C(=O)COc1c(F)cccc1F` (stereo not drawn) [Compound 32a], on lysine gingipain (Kgp) [1] (IC50 (nM) Kgp, Table 4), the IC50 was 0.08 nM.
